Patent US20070020193A1, “Dronabinol compositions and methods for using same” (priority 2005, published 2007)

What was measured:
[1] = Example 2 multiple rising dose inhaled delta-9-THC study: plasma pharmacokinetics
Procedure: A randomized, double-blind, placebo-controlled, multiple rising dose safety, tolerability, pharmacokinetic and pharmacodynamic study to assess two dose levels of inhaled delta-9-THC was conducted. Dose levels were studied in ascending order. Two consecutive groups (n=9/group) of healthy subjects were studied (Groups I and II). […] There was a lapse of at least 10 days between the groups for interim safety and pharmacokinetic analysis. Two dose levels were studied in ascending order. […] Subjects in each treatment Group (I or II) received single and multiple doses of inhaled delta-9-THC according to the following schedule:
For both dose levels, the first and the last dose of study drug was given under fasted conditions. Subjects were confined to the study site from the evening of Day −2 (Day 1 is the day of administration of the first dose of study drug) until the 120-hour blood sample following the final dose of study drug, resulting in an 18-day confinement period for subjects in Group I and a 25-day confinement period for Group II. Between the completion of Group I and the start of Group II, an interim safety and pharmacokinetic analysis was performed. Based on the results of the interim analyses, the dose level for investigation in Group II was determined.
Two MDI dosage strengths were used corresponding to the same formulations used in Example 1: one delivering 0.3 mg delta-9-THC (or placebo) per actuation and one delivering 1.2 mg delta-9-THC (or placebo) per actuation. The MDI consisted of a pressurized (via propellants) container and a metered-dose valve. The propellants provided the necessary force to expel the drug, and also acted as a solvent and diluent. The canister unit was provided within a mouthpiece (oral adapter), to expel an exact amount of drug, in the proper particle size distribution, upon each actuation. Two basic formulations containing 0.3 and 1.2 mg of delta-9-THC per 50 μL were developed with propellant 1,1,1,2 tetrafluoroethane 134a (HFA 134a), and ethanol as solvent. The formulations were made in accordance with the composition used in Example 1.
(§1) Whole blood samples were collected according to the assessment flowchart in EDTA tubes through venepuncture or indwelling catheter. Samples were immediately placed on ice and subsequently centrifuged within 30 minutes at 1,500 g for 10 minutes. Plasma was transferred into a 5 ml screw cap polypropylene tube, stoppered and stored at below minus 20° C. until transfer to the analytical laboratory for analysis. […] The measurement ranges were 0.05-30 ng/ml for delta-9-THC, 0.04-30 ng/ml for 11-OH-THC, and 0.25-10 ng/ml for THC-COOH.
For Example 2: The statistical analysis encompassed an exploratory analysis of the single and multiple dose pharmacokinetics and dose proportionality of two dose levels of inhaled delta-9-THC in healthy subjects. Descriptive statistics included number of subjects, mean, standard deviation, coefficient of variation (%) and geometric mean for all pharmacokinetic parameters.
The exploratory analysis was performed on the logarithms of the dose-normalized pharmacokinetic parameters AUC(0-inf), AUC(0-t), AUC(0-τ) and Cmax. Dose proportionality was tested both at single dose and at multiple dose (steady state) by comparing the dose groups for all pharmacokinetic parameters by an analysis of variance with dose as fixed effect.
Dose proportionality was tested by the contrast between the dose groups. For this contrast on the logarithmic scale, p-values were given. After anti-logarithmic transformation, the resultant ratios of geometric means and 90% confidence intervals were given.
Accumulation was tested by comparing the steady state values for AUC(0-τ) with the single dose values for AUC(0-τ) by a mixed model analysis of variance with dose and day (with levels single dose and steady state) as fixed effects and subject within dose as random effect.

[2] = Example 1 single rising dose inhaled delta-9-THC study: plasma pharmacokinetics
Procedure: A randomized, double blind, placebo controlled, three way crossover, single rising dose human clinical study in two sequential groups (Groups I and II) of nine young healthy male subjects (18-45 years of age and body mass index (BMI) of 20-26 kg/m^2) of a metered dose inhalation composition according to one embodiment the present invention was conducted. Each subject received two ascending single doses of inhaled delta-9-THC and one single dose of inhaled placebo according to a three-way crossover balanced incomplete block design. The administered composition is detailed in Table 1. Composition I provides 0.3 mg per actuation, while Composition II provides 1.2 mg per actuation.
Each sequential dose level or period was separated by a washout period of two weeks, during which an interim safety and pharmacokinetic analysis was performed. A third group (Group III) of nine elderly healthy male and female subjects (65-80 years old and BMI 18-30 kg/m^2) was added after completion of the sixth study period to participate in a single treatment period. […] Five dose levels were evaluated: 0.3 mg, 1.2 mg, and 2.4 mg in Group I, 3.6 mg, 7.2 mg, and 9.6 mg in Group II, and 3.6 mg in Group III. Subjects were confined to the study center from the day prior to dosing until the 48 hour blood sample. Subjects returned to the center for 72, 96 and 120 hour pharmacokinetic samples. Various pharmacokinetic and pharmacodynamic measurements and sampling were taken according to the Assessment Flow Charts in FIG. 1 and FIG. 2. Safety was measured by monitoring adverse events, physical examination, clinical laboratory and pulmonary function tests, vital signs, 12 lead ECG, and telemetry.
Safety, pharmacokinetic and pharmacodynamic variables were estimated. Plasma concentrations of delta-9-THC (THC), 11-hydroxy-tetrahydrocanabinol (11-OH-THC) and delta-9-tetrahydrocannbinol-carboxylic acid (THC-COOH) were determined for pharmacokinetic analysis.
as §1
Number of subjects, mean, standard deviation, coefficient variable (%) and geometric mean were calculated for all pharmacokinetic parameters.
For Example 1: A mixed ANOVA model with group and dose fixed effect and subject within group by dose as random effect was performed on the logarithms of the dose normalized pharmacokinetic parameters AUC, AUC0-t and Cmax. The overall treatment effect was tested by conventional F-test with Satterthwaites correction. Dose proportionality was tested using Helmert Contrasts and Reverse Helmert Contrasts. The within and between subject coefficient of variances were calculated from the estimated covariance parameters. Per dose level geometric means with 90% confidence interval were calculated for the dose-normalized values from the least squared means analysis outcomes. The difference between young and elderly subjects was explored using a one-way ANOVA.

Structure (SMILES): CCCCCc1cc(O)c2c(c1)OC(C)(C)C1CCC(CO)=CC21 (stereo not shown) [11-OH-THC, 11-hydroxy-tetrahydrocanabinol]
- achievement of steady state ([1]; 1.2 mg delta-9-THC three times daily): apparently reached after six days of dosing
- Cmax, Geometric Mean (Range) ([1]; 1.2 mg m.d. (three times daily), Day 12, Group I): 0.54 (0.26-1.26) ng/mL
- AUC(0-8), Arithmetic Mean (SD) ([1]; 1.2 mg m.d., Day 12, Group I): 2.07 (0.99) ng · h/mL
- AUC(0-8), Geometric Mean (Range) ([1]; 1.2 mg m.d., Day 12, Group I): 1.89 (1.13-3.48) ng · h/mL
- Cmax, Arithmetic Mean (SD) ([1]; 1.2 mg m.d., Day 12, Group I): 0.61 (0.36) ng/mL
- tmax, Arithmetic Mean (SD) ([1]; 1.2 mg m.d., Day 12, Group I): 0.48 (0.36) h
- tmax, median (range) ([1]; 1.2 mg m.d., Day 12, Group I): 0.42 (0.17-1.00) h
- t½, Arithmetic Mean (SD) ([1]; 1.2 mg m.d., Day 12, Group I): 14.9 (6.08) h
- t½, Geometric Mean (Range) ([1]; 1.2 mg m.d., Day 12, Group I): 13.9 (7.41-25.2) h
- AUC(0-8), Arithmetic Mean (SD) ([1]; 1.2 mg s.d., Day 1): 1.50 (0.88) ng · h/mL
- AUC(0-8), Geometric Mean (Range) ([1]; 1.2 mg s.d., Day 1): 1.26 (0.41-2.66) ng · h/mL
- AUC(0-inf), Arithmetic Mean (SD) ([1]; 1.2 mg s.d., Day 1): 1.93 (1.22) ng · h/mL
- AUC(0-inf), Geometric Mean (Range) ([1]; 1.2 mg s.d., Day 1): 1.56 (0.49-3.39) ng · h/mL
- tmax, Arithmetic Mean (SD) ([1]; 1.2 mg s.d., Day 1): 0.48 (0.75) h
- tmax, median (range) ([1]; 1.2 mg s.d., Day 1): 0.17 (0.17-2.00) h
- t½, Arithmetic Mean (SD) ([1]; 1.2 mg s.d., Day 1): 4.19 (1.67) h
- t½, Geometric Mean (Range) ([1]; 1.2 mg s.d., Day 1): 3.91 (2.55-6.01) h
- Cmax, Arithmetic Mean (SD) ([1]; 1.2 mg s.d., Day 1, plasma): 0.86 (0.57) ng/mL
- Cmax, Geometric Mean (Range) ([1]; 1.2 mg s.d., Day 1, plasma): 0.63 (0.10-1.55) ng/mL
- Cmax, Geometric Mean (Range) ([1]; 3.6 mg m.d. (three times daily), Day 19, Group II): 2.87 (1.27-6.97) ng/mL
- AUC(0-8), Arithmetic Mean (SD) ([1]; 3.6 mg m.d., Day 19, Group II): 10.1 (6.13) ng · h/mL
- AUC(0-8), Geometric Mean (Range) ([1]; 3.6 mg m.d., Day 19, Group II): 8.69 (4.06-19.8) ng · h/mL
- Cmax, Arithmetic Mean (SD) ([1]; 3.6 mg m.d., Day 19, Group II): 3.40 (2.17) ng/mL
- tmax, Arithmetic Mean (SD) ([1]; 3.6 mg m.d., Day 19, Group II): 0.27 (0.20) h
- tmax, median (range) ([1]; 3.6 mg m.d., Day 19, Group II): 0.17 (0.17-0.67) h
- t½, Arithmetic Mean (SD) ([1]; 3.6 mg m.d., Day 19, Group II): 57.3 (37.9) h
- t½, Geometric Mean (Range) ([1]; 3.6 mg m.d., Day 19, Group II): 39.5 (5.65-94.2) h
- AUC(0-8), Arithmetic Mean (SD) ([1]; 3.6 mg s.d., Day 1): 5.15 (3.04) ng · h/mL
- AUC(0-8), Geometric Mean (Range) ([1]; 3.6 mg s.d., Day 1): 4.44 (2.22-9.46) ng · h/mL
- AUC(0-inf), Arithmetic Mean (SD) ([1]; 3.6 mg s.d., Day 1): 6.82 (3.98) ng · h/mL
- AUC(0-inf), Geometric Mean (Range) ([1]; 3.6 mg s.d., Day 1): 5.86 (3.03-11.6) ng · h/mL
- tmax, Arithmetic Mean (SD) ([1]; 3.6 mg s.d., Day 1): 0.18 (0.01) h
- tmax, median (range) ([1]; 3.6 mg s.d., Day 1): 0.17 (0.17-0.20) h
- t½, Arithmetic Mean (SD) ([1]; 3.6 mg s.d., Day 1): 5.98 (2.91) h
- t½, Geometric Mean (Range) ([1]; 3.6 mg s.d., Day 1): 5.44 (2.96-11.0) h
- Cmax, Arithmetic Mean (SD) ([1]; 3.6 mg s.d., Day 1, plasma): 2.21 (1.37) ng/mL
- Cmax, Geometric Mean (Range) ([1]; 3.6 mg s.d., Day 1, plasma): 1.91 (1.12-4.38) ng/mL
- achievement of steady state ([1]; 3.6-mg dose level three times daily): achieved after seven or eight days of dosing
- accumulation during multiple dosing ([1]; 8-hours dosing interval): accumulation occurred during multiple dosing
- Ratio AUC(0-8) m.d./AUC(0-8) s.d. (Accumulation factor), Mean ([1]; Group I, 1.2 mg): 1.59
- Ratio AUC(0-8) m.d./AUC(0-inf) s.d. (Linearity), Mean ([1]; Group I, 1.2 mg): 1.30
- Ratio AUC(0-8) m.d./AUC(0-8) s.d. (Accumulation factor), Mean ([1]; Group II, 3.6 mg): 2.10
- Ratio AUC(0-8) m.d./AUC(0-inf) s.d. (Linearity), Mean ([1]; Group II, 3.6 mg): 1.55
- dose proportionality: geometric mean ratio (3.6 mg:1.2 mg) of dose-normalized AUC(0-8) (90% confidence interval) ([1]; Multiple dose): 1.53 (0.87-2.69)
- dose proportionality: geometric mean ratio (3.6 mg:1.2 mg) of dose-normalized Cmax (90% confidence interval) ([1]; Multiple dose): 1.79 (0.95-3.36)
- dose proportionality: geometric mean ratio (3.6 mg:1.2 mg) of dose-normalized AUC(0-8) (90% confidence interval) ([1]; Single dose): 1.18 (0.60-2.33)
- dose proportionality: geometric mean ratio (3.6 mg:1.2 mg) of dose-normalized AUC(0-inf) (90% confidence interval) ([1]; Single dose): 1.25 (0.61-2.57)
- dose proportionality: geometric mean ratio (3.6 mg:1.2 mg) of dose-normalized AUC(0-t) (90% confidence interval) ([1]; Single dose): 1.43 (0.64-3.20)
- dose proportionality: geometric mean ratio (3.6 mg:1.2 mg) of dose-normalized Cmax (90% confidence interval) ([1]; Single dose): 1.01 (0.42-2.42)
- Cmax, fold lower compared to the parent compound ([1]; after multiple dosing): ~13 fold
- exposure compared to the parent drug (AUC(0-8)) ([1]; after multiple dosing): approximately two-fold lower
- Cmax, fold lower compared to the parent compound ([1]; after single dosing): approximately 25 fold
- dose proportionality of pharmacokinetic parameters ([1]; after single or multiple dose administration): not found to deviate significantly
- plasma concentration-time curve, elimination profile ([1]; both dose levels): at least a bi-phasic elimination profile
- time of peak plasma concentration ([1]; both dose levels, post-dose): between 10 minutes and 2 hours post-dose
- exposure compared to the parent drug (AUC(0-inf)) ([1]; following single dose administration): approximately four-fold lower
- Cmax and AUC values versus dose ([1]; single and multiple dose administration, 1.2 and 3.6 mg): Dose-related increases
- Terminal elimination half-lives (summary estimate) ([1]; summary, best estimated after multiple dosing): ~40 h
- Cmax and AUC versus dose ([2]; 7.2 and 9.6 mg doses): less than proportional increase
- Cmax and AUC versus dose ([2]; Groups I and II, doses from 0.3-3.6 mg): dose-related increase
- Cmax ([2]; plasma, after 2.4 mg of delta-9-THC administered by MDI (FIGS. 6 and 7)): 0.77 ng/mL
